Test results taken from patent publication US8415469B2, “Compounds and methods for kinase modulation, and indications therefor” (Plexxikon Inc., priority 2005, dated 2013).
pIC50: −log10 of the molar value.

Assays:
Format in all cases: biochemical
[1] = target: T1, Btk (Homo sapiens, UniProt Q06187); test: Z'-Lyte FRET kinase assay (Invitrogen), Btk; settings: read-out: IC50, activity toward kinase Btk
T1 construct: purchased Invitrogen (assay run by Invitrogen)

[2] = target: T2, Ret (Homo sapiens, UniProt P07949); test: AlphaScreen kinase assay, Ret; settings: read-out: IC50, activity toward kinase Ret
T2 construct: P1378.pET-SF BI-PTP RET H661-R1012 HIS; made in house
T2 sequence (P07949 with tags, fused parts or gaps): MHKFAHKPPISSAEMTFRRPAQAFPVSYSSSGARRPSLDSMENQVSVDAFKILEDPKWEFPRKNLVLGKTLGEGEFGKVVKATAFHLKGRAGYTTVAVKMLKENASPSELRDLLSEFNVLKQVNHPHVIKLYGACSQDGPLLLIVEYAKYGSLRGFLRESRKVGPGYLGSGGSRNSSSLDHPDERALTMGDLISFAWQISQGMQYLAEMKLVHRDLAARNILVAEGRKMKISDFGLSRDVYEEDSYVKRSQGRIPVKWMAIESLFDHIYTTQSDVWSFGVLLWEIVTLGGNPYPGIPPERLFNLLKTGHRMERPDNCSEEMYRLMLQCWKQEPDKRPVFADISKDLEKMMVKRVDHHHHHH

[3] = target: T3, Stk6 (Homo sapiens, UniProt O14965); test: Z'-Lyte FRET kinase assay (Invitrogen), Stk6; settings: read-out: IC50, activity toward kinase Stk6
T3 construct: purchased Invitrogen (Carlsbad, Calif.), screening service
T3 sequence (O14965 1-403): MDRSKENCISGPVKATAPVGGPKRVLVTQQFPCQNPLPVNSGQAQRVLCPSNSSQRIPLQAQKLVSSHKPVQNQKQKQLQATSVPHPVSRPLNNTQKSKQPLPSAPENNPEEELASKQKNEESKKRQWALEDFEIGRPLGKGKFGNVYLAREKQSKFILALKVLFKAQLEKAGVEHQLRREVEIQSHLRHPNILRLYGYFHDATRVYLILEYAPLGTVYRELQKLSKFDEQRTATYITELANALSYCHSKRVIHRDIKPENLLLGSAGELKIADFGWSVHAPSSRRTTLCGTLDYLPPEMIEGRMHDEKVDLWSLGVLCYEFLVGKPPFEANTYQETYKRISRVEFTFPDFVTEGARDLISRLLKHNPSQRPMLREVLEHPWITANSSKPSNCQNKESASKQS

[4] = target: Gsk3β (Homo sapiens, UniProt P49841); test: AlphaScreen kinase assay, Gsk3β; settings: read-out: IC50, activity toward kinase Gsk3β
Sequence of Gsk3β (P49841 whole entry): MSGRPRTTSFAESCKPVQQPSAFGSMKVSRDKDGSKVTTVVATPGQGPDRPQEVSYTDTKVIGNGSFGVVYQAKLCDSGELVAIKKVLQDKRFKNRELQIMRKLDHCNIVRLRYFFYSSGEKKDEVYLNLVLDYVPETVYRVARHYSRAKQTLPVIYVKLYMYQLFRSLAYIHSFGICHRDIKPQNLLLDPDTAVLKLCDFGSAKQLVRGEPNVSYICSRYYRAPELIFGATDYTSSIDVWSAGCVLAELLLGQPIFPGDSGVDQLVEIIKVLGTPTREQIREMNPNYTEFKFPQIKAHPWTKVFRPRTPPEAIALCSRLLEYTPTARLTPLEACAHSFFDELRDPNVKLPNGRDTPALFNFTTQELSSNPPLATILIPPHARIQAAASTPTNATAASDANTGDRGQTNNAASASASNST
Excerpt: AlphaScreen assay was used to screen additional kinases. The assay is similarly dependent on the phosphorylation of a peptide substrate. In this assay, an antibody that recognizes phosphorylated substrate is bound to an acceptor bead. The peptide substrate is attached to biotin, which binds to a donor head that contains streptavidin. Thus phosphorylated substrate is bound by antibody and streptavidin, bringing the donor and acceptor heads into close proximity when kinase is not inhibited. The donor produces singlet oxygen which results in emission from the acceptor when they are in close proximity. Conversely, when kinase is inhibited, the donor and acceptor beads are not associated and the emission from the acceptor is reduced.
AlphaScreen assays were done using compounds dissolved in DMSO to a concentration of 20 mM. The compounds were diluted accordingly to the desired final concentrations in each sample well, using 1:3 serial dilution for a total of 8 concentration points.

[5] = target: T4, B-Raf (Homo sapiens, UniProt P15056); test: AlphaScreen kinase assay, B-Raf; settings: read-out: IC50, activity toward kinase B-Raf
T4 construct: purchased Upstate Biotechnology
T4 sequence (P15056 whole entry): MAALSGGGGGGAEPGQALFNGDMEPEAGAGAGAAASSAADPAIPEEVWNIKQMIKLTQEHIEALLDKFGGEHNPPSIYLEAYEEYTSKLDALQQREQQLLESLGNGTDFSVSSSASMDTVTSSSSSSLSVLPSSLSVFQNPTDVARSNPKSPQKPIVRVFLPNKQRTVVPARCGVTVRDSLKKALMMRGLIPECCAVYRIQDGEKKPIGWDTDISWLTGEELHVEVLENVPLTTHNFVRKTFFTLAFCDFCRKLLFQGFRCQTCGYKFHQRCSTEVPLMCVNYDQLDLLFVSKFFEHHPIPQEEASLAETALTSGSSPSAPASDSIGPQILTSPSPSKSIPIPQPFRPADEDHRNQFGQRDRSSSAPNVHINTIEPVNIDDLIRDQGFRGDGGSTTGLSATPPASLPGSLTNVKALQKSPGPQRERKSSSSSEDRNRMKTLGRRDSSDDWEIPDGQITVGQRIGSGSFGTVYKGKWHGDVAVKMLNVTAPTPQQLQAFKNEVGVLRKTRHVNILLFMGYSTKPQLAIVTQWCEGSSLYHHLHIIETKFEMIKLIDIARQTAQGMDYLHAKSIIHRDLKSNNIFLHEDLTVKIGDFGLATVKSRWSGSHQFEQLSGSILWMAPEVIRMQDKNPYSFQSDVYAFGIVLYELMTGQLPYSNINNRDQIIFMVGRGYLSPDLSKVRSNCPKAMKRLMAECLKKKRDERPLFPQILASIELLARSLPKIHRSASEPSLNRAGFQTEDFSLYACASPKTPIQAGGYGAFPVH

[6] = target: T5, B-Raf V600E (Homo sapiens, UniProt P15056, V600E); test: AlphaScreen kinase assay, B-Raf V600E; settings: read-out: IC50, activity toward kinase B-Raf V600E
T5 construct: P4254. pFastBacBD-CDC37 BRAF D437-K722-X, V600E; His6 with pFastBac HT leader (TEV site) (N); made in house; host or cells: Sf9 (baculovirus; chaperone CDC37 co-expressed)
T5 sequence (P15056 with tags, fused parts or gaps V600E): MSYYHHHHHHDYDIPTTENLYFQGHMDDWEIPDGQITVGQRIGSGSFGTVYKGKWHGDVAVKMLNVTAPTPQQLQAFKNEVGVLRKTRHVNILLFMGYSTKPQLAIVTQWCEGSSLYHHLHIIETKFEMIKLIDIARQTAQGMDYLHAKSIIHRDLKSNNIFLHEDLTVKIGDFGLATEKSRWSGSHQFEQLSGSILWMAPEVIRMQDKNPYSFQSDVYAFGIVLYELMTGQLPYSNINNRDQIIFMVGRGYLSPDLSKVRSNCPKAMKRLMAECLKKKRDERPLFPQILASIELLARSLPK

[7] = target: T6, c-Raf-1 (Homo sapiens, UniProt P04049); test: AlphaScreen kinase assay, c-Raf-1; settings: read-out: IC50, activity toward kinase c-Raf-1
T6 construct: purchased Upstate Biotechnology
T6 sequence (P04049 whole entry): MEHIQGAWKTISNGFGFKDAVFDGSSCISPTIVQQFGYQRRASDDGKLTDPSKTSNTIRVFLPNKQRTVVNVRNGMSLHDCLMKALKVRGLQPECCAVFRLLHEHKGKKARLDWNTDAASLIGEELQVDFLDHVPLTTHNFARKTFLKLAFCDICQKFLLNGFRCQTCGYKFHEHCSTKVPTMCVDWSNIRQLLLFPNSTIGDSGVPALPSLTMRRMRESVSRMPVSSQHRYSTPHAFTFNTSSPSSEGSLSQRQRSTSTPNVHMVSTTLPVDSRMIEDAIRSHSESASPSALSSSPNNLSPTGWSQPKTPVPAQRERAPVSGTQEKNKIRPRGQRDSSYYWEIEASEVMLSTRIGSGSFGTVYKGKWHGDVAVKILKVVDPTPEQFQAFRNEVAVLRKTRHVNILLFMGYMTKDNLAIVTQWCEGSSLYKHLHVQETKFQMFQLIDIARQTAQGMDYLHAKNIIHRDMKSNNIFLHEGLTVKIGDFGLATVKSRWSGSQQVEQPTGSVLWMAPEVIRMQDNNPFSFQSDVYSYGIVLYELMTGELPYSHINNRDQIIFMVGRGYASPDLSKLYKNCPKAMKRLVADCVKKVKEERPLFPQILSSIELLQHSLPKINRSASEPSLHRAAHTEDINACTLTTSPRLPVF

[8] = target: T7, FGFR1 (Homo sapiens, UniProt P11362, C488A/C584S); test: AlphaScreen kinase assay, FGFR1; settings: read-out: IC50, activity toward kinase FGFR
T7 construct: P1351.pET N6 BI-PTP FGFR A458-E765-X C488A, C584S; made in house; host or cells: E. coli (PTP1B co-expressed)
T7 sequence (P11362 458-765 C488A/C584S): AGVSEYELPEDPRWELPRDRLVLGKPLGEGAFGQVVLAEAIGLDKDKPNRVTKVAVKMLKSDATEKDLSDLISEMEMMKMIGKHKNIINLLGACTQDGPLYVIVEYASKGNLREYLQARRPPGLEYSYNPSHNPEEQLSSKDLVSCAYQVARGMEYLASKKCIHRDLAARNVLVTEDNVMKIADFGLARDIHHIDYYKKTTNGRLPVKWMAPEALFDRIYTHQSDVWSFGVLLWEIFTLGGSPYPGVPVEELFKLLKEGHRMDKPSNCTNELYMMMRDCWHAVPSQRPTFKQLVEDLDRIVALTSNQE

[9] = target: MAP4K4 (Homo sapiens, UniProt O95819); test: AlphaScreen kinase assay, MAP4K4; settings: read-out: IC50, activity toward kinase MAP4K4
[10] = target: T8, Fak (Homo sapiens, UniProt Q05397); test: AlphaScreen kinase assay, Fak; settings: read-out: IC50, activity toward kinase Fak
T8 construct: P1358.pFastBacHtb FAK S411-Q686-X; His6 with pFastBacHTb leader (TEV site) (N); made in house; host or cells: Sf9 (baculovirus)
T8 sequence (Q05397 411-686): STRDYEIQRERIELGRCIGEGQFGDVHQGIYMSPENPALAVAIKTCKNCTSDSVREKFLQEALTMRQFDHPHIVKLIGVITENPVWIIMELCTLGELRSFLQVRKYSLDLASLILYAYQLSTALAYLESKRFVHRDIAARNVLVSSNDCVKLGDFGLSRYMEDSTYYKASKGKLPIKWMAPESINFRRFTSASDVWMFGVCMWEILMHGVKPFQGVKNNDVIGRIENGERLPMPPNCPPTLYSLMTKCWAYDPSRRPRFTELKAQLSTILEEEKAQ
Protocol: (§2) AlphaScreen assays were done using compounds dissolved in DMSO to a concentration of 20 mM. The compounds were diluted accordingly to the desired final concentrations in each sample well, using 1:3 serial dilution for a total of 8 concentration points. Plates were prepared such that each kinase reaction is 20 μl in 1× kinase buffer, 5% DMSO and 10 μM ATP. After incubation of the kinase reaction for 1 hour at room temperature, 5 μl of donor beads in stop buffer (50 mM EDTA in 1× kinase buffer) was added, the sample was mixed and incubated for 20 minutes at room temperature before adding 5 μl of acceptor beads in stop buffer. The samples were incubated for 60 minutes at room temperature and the signal per well was read on AlphaQuest reader.

[11] = target: T9, Flt1 (Homo sapiens, UniProt P17948); test: AlphaScreen kinase assay, Flt1; settings: read-out: IC50, activity toward kinase Flt1
T9 construct: P1826.pETN6 BI-PTP FLT1 M799-D1165-X WT; His6 (N); made in house; host or cells: E. coli (PTP1B co-expressed)
T9 sequence (P17948 with tags, fused parts or gaps): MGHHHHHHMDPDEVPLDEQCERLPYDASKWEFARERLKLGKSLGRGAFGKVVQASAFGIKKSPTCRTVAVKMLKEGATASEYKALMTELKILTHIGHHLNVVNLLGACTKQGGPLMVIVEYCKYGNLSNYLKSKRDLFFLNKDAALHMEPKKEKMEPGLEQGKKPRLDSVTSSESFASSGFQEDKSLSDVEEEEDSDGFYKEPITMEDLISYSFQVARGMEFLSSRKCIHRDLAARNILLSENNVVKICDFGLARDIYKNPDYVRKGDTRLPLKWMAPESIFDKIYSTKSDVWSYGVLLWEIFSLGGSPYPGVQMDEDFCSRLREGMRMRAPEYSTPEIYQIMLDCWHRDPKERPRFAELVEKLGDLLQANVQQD

[12] = target: T10, Fms (Homo sapiens, UniProt P07333); test: AlphaScreen kinase assay, Fms; settings: read-out: IC50, activity toward kinase Fms
T10 construct: purchased Upstate Biotechnology

[13] = target: T11, Jnk1 (Homo sapiens, UniProt P45983); test: AlphaScreen kinase assay, Jnk1; settings: read-out: IC50, activity toward kinase Jnk1
T11 construct: purchased Upstate Biotechnology

[14] = target: T12, Jnk3 (Homo sapiens, UniProt P53779); test: AlphaScreen kinase assay, Jnk3; settings: read-out: IC50, activity toward kinase Jnk3
T12 construct: purchased Upstate Biotechnology
Protocol: as §2

[15] = target: T13, Kit (Homo sapiens, UniProt P10721); test: AlphaScreen kinase assay, Kit; settings: read-out: IC50, activity toward kinase Kit
T13 construct: P1332.N6 BI PTP KIT M552-K948-X COD; His6 (N); made in house; host or cells: E. coli (PTP1B co-expressed)
T13 sequence (P10721 with tags, fused parts or gaps): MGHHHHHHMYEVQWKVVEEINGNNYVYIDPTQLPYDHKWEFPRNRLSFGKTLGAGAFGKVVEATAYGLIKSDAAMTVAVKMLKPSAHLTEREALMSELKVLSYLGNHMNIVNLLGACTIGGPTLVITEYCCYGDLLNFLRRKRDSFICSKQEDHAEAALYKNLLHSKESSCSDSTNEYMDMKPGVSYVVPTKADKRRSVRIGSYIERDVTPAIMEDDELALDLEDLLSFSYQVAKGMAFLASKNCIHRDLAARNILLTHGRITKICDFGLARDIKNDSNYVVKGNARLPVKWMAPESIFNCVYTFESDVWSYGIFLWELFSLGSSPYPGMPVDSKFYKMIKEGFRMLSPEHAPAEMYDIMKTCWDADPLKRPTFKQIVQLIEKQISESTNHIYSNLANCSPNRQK

[16] = target: T14, Pyk2 (Homo sapiens, UniProt Q14289); test: AlphaScreen kinase assay, Pyk2; settings: read-out: IC50, activity toward kinase Pyk2
T14 construct: purchased Upstate Biotechnology

[17] = target: T15, Kdr (Homo sapiens, UniProt P35968); test: Z'-Lyte FRET kinase assay (Invitrogen), Kdr; settings: read-out: IC50, activity toward kinase Kdr
T15 construct: purchased Invitrogen (assay run by Invitrogen)
T15 sequence (P35968 20-1356): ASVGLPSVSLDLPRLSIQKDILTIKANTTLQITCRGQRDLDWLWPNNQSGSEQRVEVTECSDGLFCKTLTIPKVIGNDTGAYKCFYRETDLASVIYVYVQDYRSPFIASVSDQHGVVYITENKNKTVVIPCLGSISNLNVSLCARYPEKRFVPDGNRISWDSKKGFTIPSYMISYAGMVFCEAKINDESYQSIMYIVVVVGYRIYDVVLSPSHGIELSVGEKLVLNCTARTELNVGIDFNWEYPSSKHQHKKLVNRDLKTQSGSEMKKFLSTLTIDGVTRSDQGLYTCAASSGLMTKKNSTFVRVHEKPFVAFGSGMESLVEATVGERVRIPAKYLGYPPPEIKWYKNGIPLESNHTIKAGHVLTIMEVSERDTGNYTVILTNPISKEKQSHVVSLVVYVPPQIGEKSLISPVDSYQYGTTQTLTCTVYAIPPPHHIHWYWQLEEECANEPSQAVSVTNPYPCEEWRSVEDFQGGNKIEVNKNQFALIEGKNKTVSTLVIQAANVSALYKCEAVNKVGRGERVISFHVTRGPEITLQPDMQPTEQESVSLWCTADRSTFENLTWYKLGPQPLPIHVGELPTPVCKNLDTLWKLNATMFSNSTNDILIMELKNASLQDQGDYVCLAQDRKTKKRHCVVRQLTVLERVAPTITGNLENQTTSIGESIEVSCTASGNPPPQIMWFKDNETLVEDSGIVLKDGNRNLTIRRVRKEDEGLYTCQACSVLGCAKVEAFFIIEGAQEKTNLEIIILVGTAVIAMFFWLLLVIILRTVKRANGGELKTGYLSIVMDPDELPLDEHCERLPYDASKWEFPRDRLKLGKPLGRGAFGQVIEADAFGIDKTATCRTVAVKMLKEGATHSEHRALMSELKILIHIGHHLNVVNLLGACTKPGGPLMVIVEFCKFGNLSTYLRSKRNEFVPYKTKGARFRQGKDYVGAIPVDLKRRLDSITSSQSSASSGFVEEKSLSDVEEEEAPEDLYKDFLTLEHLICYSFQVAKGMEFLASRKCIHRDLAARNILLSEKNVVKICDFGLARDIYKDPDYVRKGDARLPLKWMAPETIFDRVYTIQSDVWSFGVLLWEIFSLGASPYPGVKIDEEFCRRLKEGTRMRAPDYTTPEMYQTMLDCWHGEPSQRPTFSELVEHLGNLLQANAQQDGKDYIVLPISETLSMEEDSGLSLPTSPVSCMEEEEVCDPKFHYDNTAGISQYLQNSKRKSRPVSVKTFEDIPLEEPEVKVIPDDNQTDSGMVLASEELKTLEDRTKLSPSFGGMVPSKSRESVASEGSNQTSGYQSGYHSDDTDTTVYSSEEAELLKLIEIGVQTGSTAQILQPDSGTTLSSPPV

[18] = target: T16, Abl (Homo sapiens, UniProt P00519); test: AlphaScreen kinase assay, Abl; settings: read-out: activity toward kinase Abl, IC50
T16 construct: P1121. pET-SPEC BI-PTP Abl G227-V515-X; His6 (N); made in house; host or cells: E. coli (PTP1B co-expressed)
T16 sequence (P00519 with tags, fused parts or gaps): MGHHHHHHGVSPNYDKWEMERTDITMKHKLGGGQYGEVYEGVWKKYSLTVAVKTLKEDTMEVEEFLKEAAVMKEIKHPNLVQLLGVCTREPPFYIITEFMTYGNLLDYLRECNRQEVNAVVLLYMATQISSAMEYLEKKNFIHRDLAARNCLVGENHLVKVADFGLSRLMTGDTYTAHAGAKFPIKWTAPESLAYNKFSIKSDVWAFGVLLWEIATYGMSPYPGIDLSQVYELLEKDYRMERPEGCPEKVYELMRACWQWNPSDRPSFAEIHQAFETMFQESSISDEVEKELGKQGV
Procedure, shortened: (§1)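 AlphaScreen, biotin-peptide substrate; streptavidin donor/anti-phospho acceptor beads; decreased emission = inhibition. Cpds 20 mM DMSO stock, 1:3 x 8 conc.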

[19] = target: T17, Flt4 (Homo sapiens, UniProt P35916); test: AlphaScreen kinase assay, Flt4; settings: read-out: IC50, activity toward kinase Flt4
T17 construct: purchased ProQinase GmbH (Freiburg, Germany)
Procedure, shortened: as §1

[20] = target: T18, MAP2K1 (Homo sapiens, UniProt Q02750); test: Z'-Lyte FRET kinase assay (Invitrogen), MAP2K1; settings: read-out: IC50, activity toward kinase MAP2K1
T18 construct: purchased Invitrogen (assay run by Invitrogen)
T18 sequence (Q02750 whole entry): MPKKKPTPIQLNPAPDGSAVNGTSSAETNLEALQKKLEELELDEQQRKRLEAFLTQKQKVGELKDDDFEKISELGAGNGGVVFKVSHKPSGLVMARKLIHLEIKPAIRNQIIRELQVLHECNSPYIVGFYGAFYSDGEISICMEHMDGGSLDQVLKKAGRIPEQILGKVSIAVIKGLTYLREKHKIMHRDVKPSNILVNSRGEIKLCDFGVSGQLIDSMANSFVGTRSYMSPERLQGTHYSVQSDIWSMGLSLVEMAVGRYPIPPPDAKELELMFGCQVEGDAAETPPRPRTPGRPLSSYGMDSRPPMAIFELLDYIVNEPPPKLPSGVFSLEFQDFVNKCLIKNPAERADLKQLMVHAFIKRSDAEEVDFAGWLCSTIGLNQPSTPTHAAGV

[21] = target: T19, Src (Homo sapiens, UniProt P12931); test: AlphaScreen kinase assay, Src; settings: read-out: IC50, activity toward kinase Src
T19 construct: P1144. pET-N6 BI-PTP SRC V86-L536-X; made in house

[22] = target: T20, Met (Homo sapiens, UniProt P08581); test: AlphaScreen kinase assay, Met; settings: read-out: IC50, activity toward kinase Met
T20 construct: P1818.pETN6 BI-PTP MET G1056-G1364-X WT; His6 (N); made in house; host or cells: E. coli (PTP1B co-expressed)
Procedure, shortened: as §1

Measured: pIC50

Cc1ccccc1C(=O)c1c[nH]c2nccc(-c3cccc(/C=C/C(=O)O)c3)c12 [Compound P-0094]
≥ 5.00: [1] | [2] | [3] | [4]

O=C(c1c(F)ccc(NS(=O)(=O)c2ccccc2)c1F)c1c[nH]c2ncc(F)cc12 [Compound P-0902, N-[2,4-Difluoro-3-(5-fluoro-1H-pyrrolo[2,3-b]pyridine-3-carbonyl)-phenyl]-benzenesulfonamide]
≥ 5.00: [5] | [6] | [7] | [8] | [4] | [9]

Nc1cccc(-c2c(CN3CCC(C(=O)O)CC3)[nH]c3ncccc23)c1 [Compound P-0462]
≥ 5.00: [4]

Cc1ccc(-c2c(C)[nH]c3ncccc23)s1 [Compound P-0207]
≥ 5.00: [3] | [4]

CC(=O)Nc1ccc(F)c(C(=O)c2c[nH]c3ncc(-c4cccnc4)cc23)c1F [Compound P-1002, N-[2,4-Difluoro-3-(5-pyridin-3-yl-1H-pyrrolo[2,3-b]pyridine-3-carbonyl)-phenyl]-acetamide]
≥ 5.00: [6] | [7] | [10] | [8] | [11] | [12] | [13] | [14] | [15] | [16] | [4]

Cc1c(NS(C)(=O)=O)cccc1C(=O)c1c[nH]c2ncc(Br)cc12 [Compound P-0180, N-[3-(5-Bromo-1H-pyrrolo[2,3-b]pyridine-3-carbonyl)-2-methyl-phenyl]-methanesulfonamide]
≥ 5.00: [5] | [6] | [7] | [8] | [11] | [12] | [17] | [15] | [4]

Cc1cc(C)cc(-c2ccnc3[nH]cc(Sc4ccccc4)c23)c1 [Compound P-0252]
≥ 5.00: [6] | [4]

COc1cccc(C(=O)c2c[nH]c3ncc(-c4cccnc4)cc23)c1 [Compound P-0167]
≥ 5.00: [18] | [8] | [19] | [17] | [15] | [20] | [2]

Cc1cc(C)cc(-c2ccnc3[nH]ccc23)c1 [Compound P-0159]
≥ 5.00: [2] | [4]

O=[N+]([O-])c1cccc(Sc2c[nH]c3nccc(-c4cccc(C(F)(F)F)c4)c23)c1 [Compound P-0969]
≥ 5.00: [4]

NC(=O)c1cccc(-c2ccnc3[nH]cc(C(=O)c4ccccc4F)c23)c1 [Compound P-1181]
≥ 5.00: [6] | [8] | [11] | [15] | [2] | [21] | [4]

COc1cccc(C(=O)c2c[nH]c3nccc(Cl)c23)c1 [Compound P-0149]
≥ 5.00: [8] | [17] | [20] | [22]

CC(C)(C)OC(=O)Nc1ccc(F)c(C(=O)c2c[nH]c3ncc(Br)cc23)c1F [Compound P-1142]
≥ 5.00: [8] | [4]

Cc1cc(C)cc(-c2ccnc3[nH]cc(Sc4ccccn4)c23)c1 [Compound P-0273]
≥ 5.00: [4]

CS(=O)(=O)Nc1cccc(-c2ccnc3[nH]cc(C(=O)c4ccccc4F)c23)c1 [Compound P-0236]
≥ 5.00: [2] | [4]
